Reference: patent publication EP1175907A1, “REMEDIES” (Takara Shuzo Co, Ltd., priority 1999, dated 2000)
Values joined by “and” are separate entries in the source; they are usually repeats but may differ in a detail not shown here. Equal values may be shown once.

Legend:
MRC-5 cells [1] = test: HGF production in MRC-5 cells with cycloheximide (protein synthesis inhibitor); format: cell-based, Human; conditions: for Amount of HGF Produced (in Medium): control = 100%
Protocol: (1) Five-hundred microliters of a solution containing MRC-5 cells suspended in a DME medium containing 10% fetal bovine serum so as to have a concentration of 1 × 10^5 cells/ml were added into each well of a 48-well cell culture plate. The cells were cultured at 37°C for 24 hours in the presence of 5% CO2, and then the medium was exchanged for a DME medium containing 1% fetal bovine serum. Thereafter, cycloheximide (protein synthesis inhibitor: manufactured by nacalaitesque) was added thereto so as to have a final concentration of 0, 1, or 10 µg/ml, and a sample to be analyzed was further added thereto. Thereafter, the cells were cultured for 24 hours. This medium was collected, and the amount of HGF in the medium was determined by using the HGF ELISA Kit. The fucoidan derived from Kjellmaniella crassifolia described in item (1) of Reference Example 1 was added so as to have a final concentration of 1, 10 or 100 µg/ml. As a control, distilled water was added in the same volume as that of the sample. Each experiment was carried out twice, and an average value was taken. In Table 50, the amount of HGF produced of the control was regarded as 100%.
(2) Five-hundred microliters of MRC-5 cells (CCL171: manufactured by DAINIPPON PHARMACEUTICAL CO., LTD., code. 02-021) suspended in a DME medium containing 10% fetal bovine serum so as to have a concentration of 1 × 10^5 cells/ml were added into each well of a 48-well cell culture plate. The cells were cultured at 37°C for 24 hours in the presence of 5% CO2, and then the medium was exchanged for a DME medium containing 1% fetal bovine serum. Thereafter, cycloheximide (protein synthesis inhibitor: manufactured by nacalaitesque) was added thereto so as to have a final concentration of 0, 1, or 10 µg/ml, and a sample to be analyzed was further added thereto. The cells were then cultured for 24 hours. This medium was collected, and the amount of HGF in the medium was determined by using Quantikine Human Hepatocyte Growth Factor (HGF) ELISA Kit (manufactured by Funakoshi, Code. RS-0641-00). In addition, the cells were washed with PBS, and thereafter dissolved in 500 µl of a cytolytic buffer (50 mM HEPES, pH 7.4; 10 mM EDTA, 0.1% Triton x 100; 1 mM PMSF; 1 µg/ml pepstatin A and 1 µg/ml leupeptin). Further, in order to completely dissolve the cells, the mixture was subjected to sonication treatment, and then centrifuged, to give a supernatant (cell extract). The amount of HGF in the cell was determined in the same manner as that of the concentration of HGF in the medium. As to the amount of HGF produced, negative control was regarded as 100%. As to the inhibitory ratio, the inhibitory ratio (%) in the cycloheximide-added fraction was calculated on the basis of the amount of HGF produced when 7-12SFd-F was added alone at each concentration. 7-12SFd-F was added so as to have a final concentration of 1, 10 or 100 µg/ml. As the negative control, distilled water was added in the same volume as that of the sample. Each experiment was carried out three times, and an average value was taken. […] It was clarified from these findings that protein synthesis was involved in the induction of HGF production by 7-12SFd-F, not simply freeing of HGF from the cells.

MRC-5 cells [2] = test: induction action for HGF production in MRC-5 cells (HGF ELISA of medium); format: cell-based, Human; conditions: 24 h, control = 100%
Protocol: (1) Five-hundred microliters each of MRC-5 cells (CCL171: manufactured by DAINIPPON PHARMACEUTICAL CO., LTD., code. 02-021) suspended in a DME medium containing 10% fetal bovine serum so as to have a concentration of 1 × 10^5 cells/ml were added into each well of a 48-well cell culture plate. The cells were cultured at 37°C for 24 hours in the presence of 5% CO2, and then the medium was exchanged for a DME medium containing 1% fetal bovine serum. […] The medium was then collected, and by using Quantikine Human Hepatocyte Growth Factor (HGF) ELISA Kit (manufactured by Funakoshi, Code. RS-0641-00), the amount of HGF in the medium was determined.
As a control, distilled water was added in the same volume as that of the sample. The amount of HGF of the control was 7.2 ng/ml. The amount of HGF produced in each sample-added group is shown in Table 1, assuming that the value of the control is 100%. Each experiment was carried out twice, and its average value was taken.

Compound | Amount of HGF Produced (MRC-5 cells [2]; sample 10 µg/ml) | Amount of HGF Produced (MRC-5 cells [2]; sample 100 µg/ml) | Amount of HGF Produced (MRC-5 cells [2]; sample 1000 µg/ml) | Amount of HGF Produced (MRC-5 cells [2]; sample 1 µg/ml) | other results
C[C@@H]1C[C@@H]([C@H](O)CC2CC(=O)NC(=O)C2)C(=O)[C@@H](C)C1 [Cycloheximide, cycloheximide] |  |  |  |  | Amount of HGF Produced (Total in Cells and in Medium) (MRC-5 cells [1]; Cycloheximide 1 µg/ml alone): 31%; Inhibitory Ratio Where Cycloheximide Non-Added Group Was Regarded as 100% (Total in Cells and in Medium) (MRC-5 cells [1]; Cycloheximide 1 µg/ml alone): 69%; Inhibitory Ratio Where Cycloheximide Non-Added Group Was Regarded as 100% (in Medium) (MRC-5 cells [1]; Cycloheximide 1 µg/ml alone): 60%; Amount of HGF Produced (in Medium) (MRC-5 cells [1]; Cycloheximide 1 µg/ml alone): 35% and 40%; Amount of HGF Produced (Total in Cells and in Medium) (MRC-5 cells [1]; Cycloheximide 10 µg/ml alone): 27%; Inhibitory Ratio Where Cycloheximide Non-Added Group Was Regarded as 100% (Total in Cells and in Medium) (MRC-5 cells [1]; Cycloheximide 10 µg/ml alone): 73%; Inhibitory Ratio Where Cycloheximide Non-Added Group Was Regarded as 100% (in Medium) (MRC-5 cells [1]; Cycloheximide 10 µg/ml alone): 60%; Amount of HGF Produced (in Medium) (MRC-5 cells [1]; Cycloheximide 10 µg/ml alone): 27% and 40%
sodium salt of sulfated isomaltose | 134% | 301% | 477% |  | 
sodium salt of sulfated maltoheptaose | 341% | 486% | 706% |  | 
sodium salt of sulfated palatinose | 132% | 278% | 519% |  | 
sodium salt of sulfated maltohexaose | 407% | 571% | 761% |  | 
sodium salt of sulfated melibiose | 240% | 403% | 667% |  | 
sodium salt of sulfated D-(+)-glucose [Sodium Salt of Sulfated Glucose] | 377% | 864% |  | 178% | 
sodium salt of sulfated D-talose [Sodium Salt of Sulfated Talose] | 112% | 263% | 494% |  | 
sodium salt of sulfated D-glucitol [Sodium Salt of Sulfated Glucitol] | 112% | 203% | 335% |  | 
sodium salt of sulfated lactose | 185% | 410% |  | 118% | 
sodium salt of sulfated sucrose | 355% | 501% |  | 173% | 
sodium salt of sulfated cellobiose | 100% | 143% | 546% |  | 
sodium salt of sulfated maltotriose | 286% | 387% |  | 151% | 
sodium salt of sulfated trehalose | 447% | 421% |  | 277% | 
sodium salt of sulfated D-(+)-galactose [Sodium Salt of Sulfated Galactose] |  | 166% |  |  | 
sodium salt of sulfated D-(+)- xylose [Sodium Salt of Sulfated Xylose] | 110% | 112% | 284% |  | 
sodium salt of sulfated 2-deoxy-glucose | 127% | 102% | 239% |  | 
sodium salt of sulfated turanose | 127% | 203% | 379% |  | 
sodium salt of sulfated dodecyl-maltohexaose | 289% | 371% | 359% |  | 
sodium salt of sulfated maltose | 273% | 439% |  | 142% | 
sodium salt of sulfated D-(+)- mannose [Sodium Salt of Sulfated Mannose] | 175% | 456% |  | 112% | 
sodium salt of sulfated lactulose | 139% | 376% | 583% |  | 
